Data taken from patent US9198900B2, “Treatment of peritoneal injury using JAK inhibitors” (Los Angeles Biomedical Research Institute at Harbor-UCLA …, priority 2011, dated 2015).

Key:
[1] = test system: human peritoneal mesothelial cells; conditions: cultured human peritoneal mesothelial cells; cited from earlier work
JAK/STAT signaling = assay: Mesothelial cell exposure to heated PDF in vitro (immunoblot); format: cell-based, human
Procedure: Mesothelial cell exposure to heated PDF in vitro activated JAK/STAT signaling and induced the STAT-associated protein periostin. Heat-sterilization of PDF generates GDPs. A commercially available immortalized human mesothelial cell line was cultured in standard medium, then switched to control medium or heat-sterilized PDF (30:70, medium:PDF)×4 hrs. Heated PDF induced STAT1 phosphorylation, and the pan-JAKi P6 attenuated this (immunoblot doublet, FIG. 1A). After 24 hrs, P6 also attenuated the secretion of the injurious STAT-associated protein periostin into the medium (immunoblot triplet, FIG. 1B). Five characteristics of periostin make it an attractive marker of Pbarrier injury. 1) Periostin is a marker and mediator for the adoption of a mesenchymal phenotype by injured or transformed epithelial cells^73-75. 2) It participates in fibrous healing^76. Others show periostin in the Pbarrier of patients with fibrosis and encapsulating peritoneal sclerosis (Braun et al, ASN poster, 2011). 3) Periostin supports neovascularization^77. 4) It has a bidirectional regulatory relationship with TGF-β^78. 5) It's promoter region has STAT1 and 5 binding sites (www|.|sabiosciences|.|com/chipqpersearch.php?species_id=0&nfactor=n&ninfo=n&ngene=n&B2=Search&src=genecard&factor=Over+200+TF&gene=POSTN). Thus, we can use periostin to affirm JAK/STAT signaling and mesothelial dedifferentiation.

Met-5A cells = assay: Cleaved caspase-3 Western blot after exposure to peritoneal dialysis fluid; format: cell-based; conditions: 250 nM P6, 24 h; heated PDF, F-PDF, Low GDP-FPDF; FIG. 5N
Procedure: Methods: Met-5A cells were incubated with heated peritoneal dialysis fluid (PDF), filtered (F-PDF) and Low GDP-FPDF with or without 250 nM JAK inhibitor (Jaki) P6, and cells were harvested at 24 h for measuring cleaved caspase-3 by Western blot as an indication of cell death. 100 μg of cell lysate was separated on a 8-16% SDS polyacrylamide gel. Proteins were transferred onto a nitrocellulose membrane, blocked with 5% BSA in TBST and incubated with primary anti-cleaved caspase-3 antibody (1; 1000, Cell Signaling) overnight. After incubation with a HRP conjugated anti-rabbit antibody (1:1500, GE Healthcare UK Ltd, Piscataway, N.J.), protein bands were visualized by chemiluminiscence (Thermo Scientific). GAPDH serves as an internal control.

peritoneal membrane = assay: Rat PD with 4.25% Dianeal (biPDF), peritoneal histology; format: in vivo; conditions: rats undergoing PD with bioincompatible PDF (biPDF), compared to placebo
Description: In rats, 10 days of PD with 4.25% Dianeal induced mesothelial cell reactive hyperplasia, fibrosis, inflammation, and JAK1 phosphorylation, all of which are attenuated by a JAK1/2 inhibitor. Visceral and parietal peritoneum respond to biPDF differently^33, 88, so only like tissues were compared across treatments.

Row | SMILES | leptin-induced TGFβ synthesis [1] | secretion of the STAT-associated protein periostin into the medium (JAK/STAT signaling; heated PDF, after 24 hrs, FIG. 1B) | STAT1 phosphorylation induced by heated PDF (JAK/STAT signaling; immortalized human mesothelial cell line, heat-sterilized PDF (30:70, medium:PDF) x 4 hrs, FIG. 1A) | caspase-3 cleavage induced by PDF (indication of cell death) (Met-5A cells) | structural integrity of the peritoneal membrane (peritoneal membrane)
1 | N#C/C(=C\c1ccc(O)c(O)c1)C(=O)NCc1ccccc1 [AG-490] | abolished |  |  |  | 
2 | CC(C)(C)c1nc2c3cc[nH]c(=O)c3c3cc(F)ccc3c2[nH]1 [P6] |  | attenuated | attenuated | reduced | preserved
